What follows are cell lines tested with Cn1nnc2c(C(N)=O)ncn2c1=O [Temozolomide] (assay: relative viability (nuclei count vs DMSO), 5 days (fraction); higher = more cells survive). Conditions: 0.2 µM.
In short: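 Lung cancer cell lines were seeded into 1536-well plates, kept overnight at 37 °C and pinned with five library-drug doses (not always all listed) spaced by √10. After 5 days, nuclei were Hoechst-stained, imaged at 4× and counted with MetaXpress. Viability is treated-well nuclei over vehicle-well nuclei, taken as a median across plates. Plates needed control CV below 25% and at least one doubling.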

Q: A-427 was tested. Which relative viability did it give?
A: 1.04

Q: How did the relative viability turn out when ABC-1 was run?
A: 1.07

Q: For BEN, which relative viability is on record?
A: 0.956

Q: How did the relative viability turn out when CAL-12T was run?
A: 0.908

Q: How did the relative viability turn out when COR-L23 was run?
A: 1.19

Q: Which relative viability does the source give for COR-L 105 here?
A: 0.895

Q: How did the relative viability turn out when Calu-6 was run?
A: 1.08

Q: How did the relative viability turn out when ChaGo-K-1 was run?
A: 1.06

Q: How did the relative viability turn out when EBC-1 was run?
A: 0.997

Q: Which relative viability does the source give for EKVX here?
A: 0.618

Q: EMC-BAC-2 was tested. Which relative viability did it give?
A: 1.07

Q: EPLC-272H was tested. Which relative viability did it give?
A: 0.98

Q: Which relative viability does the source give for HARA here?
A: 0.979

Q: HCC-15 was tested. Which relative viability did it give?
A: 1.12

Q: Which relative viability does the source give for HCC-44 here?
A: 1.02

Q: For HCC-78, which relative viability is on record?
A: 0.762

Q: HCC-366 was tested. Which relative viability did it give?
A: 0.939

Q: How did the relative viability turn out when HCC-827 was run?
A: 1.08

Q: Which relative viability does the source give for HOP-62 here?
A: 1.11

Q: IA-LM was tested. Which relative viability did it give?
A: 1.11

Q: For LC-2-ad, which relative viability is on record?
A: 1.06

Q: For LCLC-97TM1, which relative viability is on record?
A: 1.15

Q: For LCLC-103H, which relative viability is on record?
A: 0.995

Q: For LK-2, which relative viability is on record?
A: 0.997

Q: Which relative viability does the source give for LOU-NH91 here?
A: 0.856

Q: Which relative viability does the source give for LU99A here?
A: 1.06

Q: Which relative viability does the source give for LXF-289 here?
A: 1.04

Q: Which relative viability does the source give for NCI-H23 here?
A: 1.2

Q: With NCI-H441 as the cell line, how does the relative viability read?
A: 1.25

Q: With NCI-H522 as the cell line, how does the relative viability read?
A: 0.842

Q: How did the relative viability turn out when NCI-H2342 was run?
A: 0.827

Q: Which relative viability does the source give for SW 900 here?
A: 1.07

Same assay, conditions: 0.6325 µM

Q: With 201T as the cell line, how does the relative viability read?
A: 1

Q: Which relative viability does the source give for A549 here?
A: 1.02

Q: For A-427, which relative viability is on record?
A: 0.996

Q: Which relative viability does the source give for ABC-1 here?
A: 0.925

Q: For BEN, which relative viability is on record?
A: 0.94

Q: How did the relative viability turn out when CAL-12T was run?
A: 1.04

Q: COR-L23 was tested. Which relative viability did it give?
A: 1.04

Q: How did the relative viability turn out when COR-L 105 was run?
A: 1.02

Q: Which relative viability does the source give for Calu-6 here?
A: 1

Q: For ChaGo-K-1, which relative viability is on record?
A: 0.983

Q: With EBC-1 as the cell line, how does the relative viability read?
A: 1.01

Q: For EKVX, which relative viability is on record?
A: 0.97

Q: Which relative viability does the source give for EMC-BAC-2 here?
A: 1.07

Q: Which relative viability does the source give for EPLC-272H here?
A: 0.972

Q: How did the relative viability turn out when H3255 was run?
A: 0.96

Q: For HARA, which relative viability is on record?
A: 1.02

Q: How did the relative viability turn out when HCC-15 was run?
A: 1.01

Q: For HCC-44, which relative viability is on record?
A: 0.986

Q: For HCC-78, which relative viability is on record?
A: 0.937

Q: HCC-366 was tested. Which relative viability did it give?
A: 1

Q: With HCC-827 as the cell line, how does the relative viability read?
A: 1.05

Q: HOP-62 was tested. Which relative viability did it give?
A: 0.997

Q: Which relative viability does the source give for IA-LM here?
A: 0.94

Q: With LC-2-ad as the cell line, how does the relative viability read?
A: 1.09

Q: With LCLC-97TM1 as the cell line, how does the relative viability read?
A: 0.985

Q: For LCLC-103H, which relative viability is on record?
A: 1

Q: With LK-2 as the cell line, how does the relative viability read?
A: 1.06

Q: LOU-NH91 was tested. Which relative viability did it give?
A: 0.979

Q: LU99A was tested. Which relative viability did it give?
A: 0.946

Q: How did the relative viability turn out when LXF-289 was run?
A: 0.959

Q: Which relative viability does the source give for NCI-H23 here?
A: 1.03

Q: For NCI-H322M, which relative viability is on record?
A: 0.931

Q: NCI-H441 was tested. Which relative viability did it give?
A: 1.06

Q: NCI-H522 was tested. Which relative viability did it give?
A: 0.985

Q: For NCI-H1623, which relative viability is on record?
A: 1.18

Q: How did the relative viability turn out when NCI-H1648 was run?
A: 0.889

Q: Which relative viability does the source give for NCI-H2342 here?
A: 0.991

Q: Which relative viability does the source give for SW 900 here?
A: 1.1

Same assay, conditions: 2 µM

Q: 201T was tested. Which relative viability did it give?
A: 1.01

Q: A549 was tested. Which relative viability did it give?
A: 0.986

Q: A-427 was tested. Which relative viability did it give?
A: 1.03

Q: With ABC-1 as the cell line, how does the relative viability read?
A: 1.08

Q: BEN was tested. Which relative viability did it give?
A: 1.03

Q: For CAL-12T, which relative viability is on record?
A: 0.959

Q: COR-L23 was tested. Which relative viability did it give?
A: 1.05

Q: With COR-L 105 as the cell line, how does the relative viability read?
A: 0.993

Q: Calu-6 was tested. Which relative viability did it give?
A: 1.07

Q: How did the relative viability turn out when ChaGo-K-1 was run?
A: 1.08

Q: EBC-1 was tested. Which relative viability did it give?
A: 1.06

Q: Which relative viability does the source give for EKVX here?
A: 0.967

Q: Which relative viability does the source give for EMC-BAC-2 here?
A: 1.03

Q: With EPLC-272H as the cell line, how does the relative viability read?
A: 0.997

Q: Which relative viability does the source give for H3255 here?
A: 0.993

Q: HARA was tested. Which relative viability did it give?
A: 1.05

Q: For HCC-15, which relative viability is on record?
A: 1

Q: Which relative viability does the source give for HCC-44 here?
A: 0.987

Q: How did the relative viability turn out when HCC-78 was run?
A: 1.04

Q: How did the relative viability turn out when HCC-366 was run?
A: 1.08

Q: For HCC-827, which relative viability is on record?
A: 1.05

Q: How did the relative viability turn out when HOP-62 was run?
A: 1.04

Q: Which relative viability does the source give for IA-LM here?
A: 1

Q: Which relative viability does the source give for LC-2-ad here?
A: 1.04

Q: LCLC-97TM1 was tested. Which relative viability did it give?
A: 0.764

Q: LCLC-103H was tested. Which relative viability did it give?
A: 1.06

Q: For LK-2, which relative viability is on record?
A: 0.961

Q: LOU-NH91 was tested. Which relative viability did it give?
A: 0.993

Q: With LU99A as the cell line, how does the relative viability read?
A: 1.03

Q: Which relative viability does the source give for LXF-289 here?
A: 1.01

Q: With NCI-H23 as the cell line, how does the relative viability read?
A: 0.994

Q: Which relative viability does the source give for NCI-H322M here?
A: 1

Q: Which relative viability does the source give for NCI-H441 here?
A: 1.29

Q: NCI-H522 was tested. Which relative viability did it give?
A: 1.02

Q: How did the relative viability turn out when NCI-H1623 was run?
A: 1.04

Q: With NCI-H1648 as the cell line, how does the relative viability read?
A: 0.903

Q: With NCI-H2342 as the cell line, how does the relative viability read?
A: 1.06

Q: How did the relative viability turn out when SW 900 was run?
A: 0.984

Same assay, conditions: 6.325 µM

Q: Which relative viability does the source give for 201T here?
A: 0.961

Q: Which relative viability does the source give for A549 here?
A: 0.913

Q: With A-427 as the cell line, how does the relative viability read?
A: 0.713

Q: Which relative viability does the source give for ABC-1 here?
A: 0.958

Q: BEN was tested. Which relative viability did it give?
A: 0.813

Q: Which relative viability does the source give for CAL-12T here?
A: 0.95

Q: For COR-L23, which relative viability is on record?
A: 1.04

Q: With COR-L 105 as the cell line, how does the relative viability read?
A: 0.883

Q: Calu-6 was tested. Which relative viability did it give?
A: 0.954

Q: ChaGo-K-1 was tested. Which relative viability did it give?
A: 0.933

Q: With EBC-1 as the cell line, how does the relative viability read?
A: 0.917

Q: EKVX was tested. Which relative viability did it give?
A: 0.921

Q: EMC-BAC-2 was tested. Which relative viability did it give?
A: 0.943

Q: EPLC-272H was tested. Which relative viability did it give?
A: 0.859

Q: With H3255 as the cell line, how does the relative viability read?
A: 0.884

Q: With HARA as the cell line, how does the relative viability read?
A: 0.886

Q: Which relative viability does the source give for HCC-15 here?
A: 0.996

Q: For HCC-44, which relative viability is on record?
A: 0.999

Q: How did the relative viability turn out when HCC-78 was run?
A: 0.906

Q: HCC-366 was tested. Which relative viability did it give?
A: 0.987

Q: With HCC-827 as the cell line, how does the relative viability read?
A: 1

Q: For HOP-62, which relative viability is on record?
A: 0.926

Q: Which relative viability does the source give for IA-LM here?
A: 0.961

Q: How did the relative viability turn out when LC-2-ad was run?
A: 0.971

Q: LCLC-97TM1 was tested. Which relative viability did it give?
A: 0.83

Q: For LCLC-103H, which relative viability is on record?
A: 0.928

Q: With LK-2 as the cell line, how does the relative viability read?
A: 0.645

Q: Which relative viability does the source give for LOU-NH91 here?
A: 0.926

Q: Which relative viability does the source give for LU99A here?
A: 0.97

Q: With LXF-289 as the cell line, how does the relative viability read?
A: 1.03

Q: With NCI-H23 as the cell line, how does the relative viability read?
A: 0.909

Q: NCI-H322M was tested. Which relative viability did it give?
A: 0.957

Q: NCI-H441 was tested. Which relative viability did it give?
A: 0.997

Q: NCI-H522 was tested. Which relative viability did it give?
A: 0.998

Q: With NCI-H1623 as the cell line, how does the relative viability read?
A: 0.979

Q: For NCI-H1648, which relative viability is on record?
A: 0.746

Q: For NCI-H2342, which relative viability is on record?
A: 1.03

Q: How did the relative viability turn out when SW 900 was run?
A: 0.772

Same assay, conditions: 20 µM

Q: For 201T, which relative viability is on record?
A: 0.977

Q: For A549, which relative viability is on record?
A: 0.998

Q: How did the relative viability turn out when A-427 was run?
A: 0.46

Q: How did the relative viability turn out when ABC-1 was run?
A: 1.02

Q: BEN was tested. Which relative viability did it give?
A: 0.766

Q: For CAL-12T, which relative viability is on record?
A: 0.95

Q: With COR-L23 as the cell line, how does the relative viability read?
A: 0.955

From the supplement of paper PMC10307832
